The subject of series [1] is hiPSC. The experiment in a line: long-term 5-passage, 4-day hiPSC growth assay. The format is cell-based, human. The following applies: for confirmed concentration in long-term assay: FIG. 5A-C; for necessity of component for hiPSC culture: long-term assay, removal of dispensable components reduces growth rate; for concentration confirmed / usable / required in long-term assay: FIG. 5D-L. An excerpt:
FIG. 5A-P. Optimization of B8 Medium Constituents with a Long-Term Growth Assay. Results are normalized to initial medium component concentrations shown with a dark gray bar, optimizations were completed using long-term 5-passage, 4-day growth assay. Comparison of the effect of (A) recombinant human insulin concentration on relative growth (n=10). (B) L-ascorbic acid 2-phosphate (n=10). (C) Recombinant transferrin (n=10). (D) Sodium selenite (n=5). (E) In-house made FGF2-G3 (n=6). (G) NODAL (n=5). (H) Activin A (n=5). (I) In-house made TGFb3 after 9 passages compared to commercial TGFb1 (n=9). (J) Addition of NRG1 to 40 ng ml−1 FGF2-G3 (n>5). (K) Final B8 formula. n=full experimental replicates, unpaired Student's T-test, *P≤0.05, **P≤0.01, ***P≤0.005, ****P≤0.0001, n.s.=not significant.
Our initial short-term experiments provided preliminary optimizations, yet we were aware from previous experiments that some variables, such as the elimination of TGFβ1, had minimal effects short-term and would only have detectable negative effects in long-term experiments. Thus the effectiveness of a long-term assay was evaluated with the following assay protocol: […]

Series [2] concerns hiPSC line 19-3. The experiment in a line: short-term 6-day hiPSC growth assay (media variable optimization). The settings on record: for necessity of component for hiPSC growth: short-term assay, FIG. 2; for concentrations showing a similar effect on growth rate: FGF2-G3 compared with FGF2-K128N; for optimal / sufficient concentration for growth: one passage growth assay, FIG. 2E-F. The format is cell-based, human. The source says: FIG. 2A-F. Optimization of Basic Human Pluripotent Stem Cell Medium Constituents with a Short-Term Growth Assay. Results are normalized to initial medium component concentrations shown with a dark gray bar, optimizations were completed using short-term 6-day growth assay. […] (A) Comparison of the effect of recombinant human IGF1 LR3 (n=3) and recombinant human insulin (n=18-22) concentrations on relative growth. (B) L-ascorbic acid 2-phosphate (n=19-27). (C) Transferrin (n=2-20). (D) Sodium selenite (n=3-20). (E) FGF2-K128N (n=3-12). (F) TGFb1 (n=20-25). n=full experimental replicates, unpaired Student's T-test, *P≤0.05, **P≤0.01, ***P≤0.005, ****P≤0.0001, n.s.=not significant.
FIG. 3A-H. Optimization of Additional Human Pluripotent Stem Cell Medium Constituents in a Short-Term Assay. E8 medium component concentrations are shown with a dark gray bar, optimizations were completed using a simple 6-day growth assay. […] (A) Comparison of the suitability of recombinant transferrin (10 μg ml−1) to support clonal growth with and without ROCK1/2 inhibition using Y27632 (10 μM) during the first 24 h after passage (n=3). (B) Comparison of two common ROCK1/2 inhibitors only during first 24 h after passage on relative growth (n>5). (C) Comparison of the effect of the addition of non-essential amino acids (NEAA) and chemically defined lipids (n=5) on relative growth. (D) Fatty acid-free albumin (n=4). (E) Sodium bicarbonate (n=5). (F) pH (n=9). (G) Osmolarity (n=8). (H) FGF2-G3 (n=3). n=full experimental replicates, unpaired Student's T-test, *P≤0.05, **P≤0.01, ***P≤0.005, ****P≤0.0001, n.s.=not significant.
The hiPSC line 19-3 was dissociated with TrypLE (Gibco™, 12604-013) for 3 min at 37° C. and cells were resuspended in DMEM/F12, transferred to a 15 ml conical tube (Falcon) and centrifuged at 200×g for 3 min (Sorvall ST40). The pellet was resuspended in DMEM/F12, diluted to 1×10^5 cells per ml and 10,000 cells were plated per well in Matrigel® (1:800)-coated 12-well plates (Greiner) in the medium to be tested along with 2 μM thiazovivin for the first 24 h. Media were changed daily and cells were grown for 6 days. This lower than normal seeding density was used to allow the discovery of factors only detectable under more extreme conditions and therefore provide data on the robustness to the formulation.

The conditions of series [3]: monomeric C77S protein; predicted (Kim et al., 2015); cited from earlier work.
Series [4] concerns phospho-ERK. Briefly: stimulation of phospho-ERK in FGF2-starved hiPSC by media stored at 37° C. (Western blot). It counts as cell-based, human. Here is the method: FIG. 7A-E. Qualification of B8 as Suitable for hiPSC Generation and Culture. […] (B) Expression of pluripotent markers in a variety of B8-derived hiPSC lines. (C) Example G-banding karyotype analysis of four hiPSC lines derived in B8 from blood. (D) hiPSC growth at low seeding densities in B8 compared to E8 (n=8). (E) Assessment of stimulation of phospho-ERK after media had been stored at 37° C. for 2 or 7 days, comparing in-house generated FGF2-G3 to a commercial FGF2 (Peprotech). hiPSC were starved of FGF2 for 24 h then treated with the indicated media for 1 h before collection for Western blot. Total ERK was used as a loading control.
Stock lysis buffer was prepared as 150 mM NaCl, 20 mM Tris pH 7.5, 1 mM EDTA, 1 mM EGTA, and 1% Triton X-100 and stored at 4° C. Fresh complete lysis buffer was prepared with final concentration of 1× Protease Inhibitor (Roche, 5892791001), 1× Phosphatase Inhibitor Cocktail 2 (P5726, Sigma), 1× Phosphatase Inhibitor Cocktail 3 (Sigma, P0044), 2 mM PMSF (Sigma, P7626), and 1% SDS Solution (Fisher Scientific, BP2436200). hiPSC were starved using B8 without FGF2 for 24 hours, then treated with media containing the corresponding FGF2 for 1 h. Media was then removed, and cells were washed once with DPBS, harvested with 0.5 mM EDTA in DPBS, and transferred into tubes. Samples were pelleted by centrifugation at 500×g for 3 minutes and the supernatant was discarded. The pellet was resuspend in 150 μl complete lysis buffer and incubated on ice for 30 min. Clear lysates were collected by centrifugation at 10,000×g for 10 min at 4° C. The protein concentration was measured with Qubit Protein Assay Kit (Invitrogen, Q33211) and Qubit 4 fluorometer. Lysates was stored in −80° C. before use. 10 μg of sample was prepared with NuPAGE™ LDS Sample Buffer (Invitrogen, B0007) and NuPAGE™ Reducing Agent (Invitrogen, B0009) according to the manufacturer's instructions and run on NuPAGE™ 10% Bis-Tris Gel (Invitrogen, NP0302BOX) and Mini Gel Tank system (Invitrogen, A25977) with Bolt MES SDS Running Buffer (Invitrogen, B000202) at 100 V for 1 h. […]

Some results are limits rather than exact numbers.

As for `O=C1O[C@H]([C@@H](O)CO)C(O)=C1OP(=O)(O)O.[Na+].[Na+].[Na+]` [Ascorbic acid 2-phosphate, L-ascorbic acid 2-phosphate trisodium salt], in series [1], the “confirmed concentration in long-term assay” value (from here on “confirmed concentration”) is 200 µg/mL and the “necessity of component for hiPSC culture” value is recorded as “dispensable”. Also, the “necessity of component for hiPSC growth” value in series [2] is “not essential”.

`O=C([O-])O.[Na+]` [sodium bicarbonate]: the “optimal concentration for growth” value in series [2] (FIG. 3E) turned out to be 29 mM.

`O=[Se](O)O` [sodium selenite]: the “concentration confirmed / usable / required in long-term assay” value in series [1] is 20 ng/mL. The “concentrations that did not significantly affect growth” value in series [2] (FIG. 2D) lay in the range of 2 to 200 ng/mL.

`O=C(NCc1ccccc1)c1csc(Nc2ccncn2)n1` [thiazovivin, reference compound]: the “effect on growth vs 10 μM Y27632” value in series [2] (2 μM for the first 24 h after passage, FIG. 3B) is recorded as “marginally, though not significantly, improved growth”.

Regarding “FGF2-K128N: recombinant human FGF2 with K128N substitution, made in-house in E. coli (SEQ ID NO: 4/14)”, the “concentrations showing a similar effect on growth rate” value in series [2] (FIG. 3H) turned out to be 100 ng/mL. The “optimal / sufficient concentration for growth” value in series [2] was no less than 40 ng/mL.

On to “FGF2: fibroblast growth factor 2, human FGF2 (SEQ ID NO: 3)”, for which the “necessity of component for hiPSC growth” value in series [2] is listed as “essential”.

“IGF1 LR3: recombinant human IGF1 LR3 (Sigma, 91590C)”: in series [2] (FIG. 2A, not cost-effective), the “level of IGF1 LR3 able to replace insulin” value was no less than 1 µg/mL.

Consider “TGFβ1: recombinant human TGFβ1 (112 amino acid, HEK293-derived, Peprotech)”, for which, in series [1], the “concentration confirmed / usable / required in long-term assay” value is 0.1 ng/mL and the “necessity of component for hiPSC culture” value is “essential”. Also, the “optimal / sufficient concentration for growth” value in series [2] is no less than 0.5 ng/mL.

Regarding “TGFβ1m: TGFβ1 with C77S point mutation, unable to form dimers, produced in E. coli”, the “potency relative to TGFβ1 (fold less potent)” value in series [3] was roughly 20 fold.

As for “Transferrin: Oryza sativa-derived recombinant human transferrin (Optiferrin, InVitria)”, in series [1], the “confirmed concentration” value was 20 µg/mL and the “necessity of component for hiPSC culture” value is recorded as “dispensable”. Also, the “concentration enhancing growth / giving optimal growth” value in series [2] (FIG. 2B-C) came to 20 µg/mL. For the same molecule, the “necessity of component for hiPSC growth” value in series [2] is recorded as “not essential”.

Consider “commercial FGF2: a commercial FGF2 (Peprotech) [reference compound]”, for which, in series [4] (2 days at 37° C.), the “pERK stimulation after storage of media at 37° C.” value is recorded as “not capable of stimulating pERK”.

Regarding “insulin: E. coli-derived recombinant human insulin (Gibco)”, in series [1], the “confirmed concentration” value was found to be 20 µg/mL. In addition, the “concentration up to which effect on growth was dose-dependent” value in series [2] (FIG. 2A) is recorded as “up to 20 μg ml^−1”. In series [2], the “necessity of component for hiPSC growth” value is on record as “essential”.

B1: NRG1: 65 amino acid truncated neuregulin 1 containing just the EGF domain (SEQ ID NO: 17) (protein)
chain: SHLVKCAEKEKTFCVNGGECFMVKDLSNPSRYLCKCPNEFTGDRCQNYVMASFYKHLGIEFMEAE
On to B1, for which the “enhancement of growth over FGF2-G3 alone” value in series [1] (all tested levels of NRG1 added to 40 ng ml−1 FGF2-G3) was greater than 15%. In series [1], the “necessity of component for hiPSC culture” value is on record as “dispensable”. Besides, in series [1] (no FGF2), the “support of growth in the absence of FGF2” value is given as “not able to support growth”.

B2: Activin A: Activin/NODAL/TGFβ1 signaling source (protein, UniProt P08476 311-426, looked up)
Inhibin beta A chain: GLECDGKVNICCKKQFFVSFKDIGWNDWIIAPSGYHANYCEGECPSHIAGTSGSSLSFHSTVINHYRMRGHSPFANLKSCCVPTKLRPMSMLYYDDGQNIIKKDIQNMIVEECGCS
modifications: Inhibin beta A chain
As to B2, the “effect on growth in combination with TGFβ1” value in series [1] (FIG. 5I) is “negative effect on growth”. Besides, the “suitability to maintain growth” value in series [1] (alone, FIG. 5H) was “not suitable to maintain growth to the same level as TGFβ1”. In series [1] (very low doses), the “support of growth at very low doses” value is “could support growth, albeit to a lesser extent than TGFβ1”.

B3: FGF2-G3: thermostable FGF2 with nine point mutations, made in-house in E. coli (SEQ ID NO: 15) (protein)
chain: AAGSITTLPALPEDGGSGAFPPGHFKDPKLLYCKNGGFFLRIHPDGRVDGTRDKSDPFIKLQLQAEERGVVSIKGVCANRYLAMKEDGRLYAIKNVTDECFFFERLEENNYNTYRSRKYPSWYVALKRTGQYKLGSKTGPGQKAILFLPMSAKS
In the case of B3, in series [4] (7 days at 37° C.), the “stability (pERK stimulation) after storage of media at 37° C.” value was “stable”. In addition, in series [1], the “concentration confirmed / usable / required in long-term assay” value came to 40 ng/mL. Further, in series [2] (FIG. 3H), the “concentrations showing a similar effect on growth rate” value amounted to 5 ng/mL and the “relative potency on growth rate” value is on record as “more potent than FGF2-K128N”.

B4: NODAL: Activin/NODAL/TGFβ1 signaling source (protein, UniProt Q96S42 238-347, looked up)
Nodal homolog: HHLPDRSQLCRKVKFQVDFNLIGWGSWIIYPKQYNAYRCEGECPNPVGEEFHPTNHAYIQSLLKRYQPHRVPSTCCAPVKTKPLSMLYVDNGRVLLDHHKDMIVEECGCL
For B4, in series [1], the “concentration confirmed / usable / required in long-term assay” value was determined as 100 ng/mL.

The record behind these values is US20210087525A1, “COST EFFECTIVE CULTURE MEDIA AND PROTOCOL FOR HUMAN INDUCED PLURIPOTENT STEM CELLS” (NORTHWESTERN UNIVERSITY, priority 2019, published 2021).
